# Values of other authors, collected in PMC9516332 (Frontiers in Oncology, 2022).
# Where two headings read alike, the source gives them in different places.
# Assays:
# Details in all cases: cited from earlier work
# [1] = target: panel of 255 wild-type kinases (Homo sapiens, UniProt P04626)
# [2] = target: T1, panel of 255 wild-type kinases (Homo sapiens, UniProt Q16832)
# T1 sequence (Q16832 22-855): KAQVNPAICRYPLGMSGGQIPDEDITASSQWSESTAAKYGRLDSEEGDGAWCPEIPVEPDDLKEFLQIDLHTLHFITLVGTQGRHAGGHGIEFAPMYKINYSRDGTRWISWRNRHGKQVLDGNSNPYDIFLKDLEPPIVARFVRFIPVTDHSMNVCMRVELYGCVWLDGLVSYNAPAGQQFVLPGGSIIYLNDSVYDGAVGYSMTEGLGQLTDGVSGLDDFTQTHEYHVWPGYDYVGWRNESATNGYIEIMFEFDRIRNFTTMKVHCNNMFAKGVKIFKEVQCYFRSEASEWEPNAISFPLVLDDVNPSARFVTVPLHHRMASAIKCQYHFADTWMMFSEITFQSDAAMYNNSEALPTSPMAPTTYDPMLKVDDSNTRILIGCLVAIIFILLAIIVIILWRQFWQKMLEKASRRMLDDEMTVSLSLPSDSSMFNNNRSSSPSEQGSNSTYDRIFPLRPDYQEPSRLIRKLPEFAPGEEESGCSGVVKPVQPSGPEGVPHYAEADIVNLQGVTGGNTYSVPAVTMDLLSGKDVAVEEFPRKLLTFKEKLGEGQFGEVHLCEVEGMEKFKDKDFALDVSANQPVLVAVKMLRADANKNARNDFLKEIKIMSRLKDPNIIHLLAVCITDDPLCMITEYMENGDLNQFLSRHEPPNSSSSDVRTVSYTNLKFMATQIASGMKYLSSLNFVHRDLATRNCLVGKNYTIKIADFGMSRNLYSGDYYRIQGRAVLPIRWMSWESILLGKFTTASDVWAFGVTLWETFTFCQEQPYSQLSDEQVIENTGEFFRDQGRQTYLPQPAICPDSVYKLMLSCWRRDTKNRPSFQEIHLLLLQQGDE
# [3] = target: T2, panel of 255 wild-type kinases (Homo sapiens, UniProt Q96PN8)
# T2 sequence (Q96PN8 1-268): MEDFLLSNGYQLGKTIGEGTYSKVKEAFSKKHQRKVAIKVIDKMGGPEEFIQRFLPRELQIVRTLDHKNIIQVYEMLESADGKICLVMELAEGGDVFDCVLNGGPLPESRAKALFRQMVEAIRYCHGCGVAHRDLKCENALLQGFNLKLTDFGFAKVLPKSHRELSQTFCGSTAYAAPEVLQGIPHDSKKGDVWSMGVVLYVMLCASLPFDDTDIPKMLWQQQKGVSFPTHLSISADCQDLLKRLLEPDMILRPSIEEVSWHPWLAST
# [4] = target: panel of 255 wild-type kinases (Homo sapiens, UniProt Q9H4A3)
# [5] = target: panel of 255 wild-type kinases (Homo sapiens, UniProt P11802)
# [6] = target: T3, panel of 255 wild-type kinases (Homo sapiens, UniProt P29322)
# T3 sequence (P29322 28-1005): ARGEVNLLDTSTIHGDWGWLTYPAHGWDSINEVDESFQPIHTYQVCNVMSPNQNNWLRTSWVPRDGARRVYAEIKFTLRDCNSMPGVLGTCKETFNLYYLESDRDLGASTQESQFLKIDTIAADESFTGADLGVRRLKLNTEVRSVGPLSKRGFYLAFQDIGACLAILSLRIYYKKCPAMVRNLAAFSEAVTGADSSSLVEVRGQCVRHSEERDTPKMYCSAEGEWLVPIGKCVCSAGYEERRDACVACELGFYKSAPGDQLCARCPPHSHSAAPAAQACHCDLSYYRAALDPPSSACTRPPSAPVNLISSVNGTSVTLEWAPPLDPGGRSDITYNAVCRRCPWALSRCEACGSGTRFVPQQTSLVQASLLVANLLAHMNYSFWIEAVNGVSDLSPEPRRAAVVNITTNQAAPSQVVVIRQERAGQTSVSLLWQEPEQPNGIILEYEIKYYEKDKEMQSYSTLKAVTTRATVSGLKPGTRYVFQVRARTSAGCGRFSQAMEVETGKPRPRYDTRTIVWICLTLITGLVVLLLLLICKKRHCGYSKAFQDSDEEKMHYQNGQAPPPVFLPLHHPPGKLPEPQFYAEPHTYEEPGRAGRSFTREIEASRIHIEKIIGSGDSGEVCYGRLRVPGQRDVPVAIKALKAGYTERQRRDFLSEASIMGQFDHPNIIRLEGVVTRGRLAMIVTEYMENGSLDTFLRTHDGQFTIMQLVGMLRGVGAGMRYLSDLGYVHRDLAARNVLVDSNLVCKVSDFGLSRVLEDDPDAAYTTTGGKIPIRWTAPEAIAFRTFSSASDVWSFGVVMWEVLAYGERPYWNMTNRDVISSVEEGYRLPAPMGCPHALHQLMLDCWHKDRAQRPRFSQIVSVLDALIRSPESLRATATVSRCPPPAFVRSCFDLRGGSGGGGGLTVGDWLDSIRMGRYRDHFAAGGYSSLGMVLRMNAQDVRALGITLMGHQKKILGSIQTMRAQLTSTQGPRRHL
# [7] = kinase HER2, 1 µmol/L single concentration, ref DOI: 10.1158/1535-7163.MCT-18-0877
# [8] = kinase DDR2, 1 µmol/L single concentration, ref DOI: 10.1158/1535-7163.MCT-18-0877
# [9] = kinase TSSK3, 1 µmol/L single concentration, ref DOI: 10.1158/1535-7163.MCT-18-0877
# [10] = kinase WNK1, 1 µmol/L single concentration, ref DOI: 10.1158/1535-7163.MCT-18-0877
# [11] = CDK4/CycD3 kinase assay, 1 µmol/L single concentration, ref DOI: 10.1158/1535-7163.MCT-18-0877
# [12] = kinase EPHA8, 1 µmol/L single concentration, ref DOI: 10.1158/1535-7163.MCT-18-0877
# [13] = kinase DDR2, 1 µmol/L single concentration, ref DOI: 10.1371/journal.pone.0092146
# [14] = kinase TSSK3, 1 µmol/L single concentration, ref DOI: 10.1371/journal.pone.0092146
# [15] = kinase WNK1, 1 µmol/L single concentration, ref DOI: 10.1371/journal.pone.0092146
# [16] = CDK4/CycD3 kinase assay, 1 µmol/L single concentration, ref DOI: 10.1371/journal.pone.0092146
# [17] = kinase EPHA8, 1 µmol/L single concentration, ref DOI: 10.1371/journal.pone.0092146
# [18] = kinase HER2, 1 µmol/L single concentration, ref DOI: 10.1371/journal.pone.0092146
Structure (SMILES),"%-inhibition at 1 µmol/L, HER2 [1, 7]","%-inhibition at 1 µmol/L, DDR2 [2, 8]","%-inhibition at 1 µmol/L, TSSK3 [3, 9]","%-inhibition at 1 µmol/L, WNK1 [4, 10]","%-inhibition CDK4/CycD3 [5, 11]","%-inhibition at 1 µmol/L, EPHA8 [6, 12]","%-inhibition at 1 µmol/L, DDR2 [2, 13]","%-inhibition at 1 µmol/L, TSSK3 [3, 14]","%-inhibition at 1 µmol/L, WNK1 [4, 15]","%-inhibition CDK4/CycD3 [5, 16]","%-inhibition at 1 µmol/L, EPHA8 [6, 17]",also measured
CC#CC(=O)N1CCC[C@H]1c1nc(-c2ccc(C(=O)Nc3ccccn3)cc2)c2c(N)nccn12 [acalabrutinib],16%,6%,-8%,5.36%,-13%,6.51%,–,–,–,–,–,–
CCc1cc2c(cc1N1CCC(N3CCOCC3)CC1)C(C)(C)c1[nH]c3cc(C#N)ccc3c1C2=O [alectinib],-1.77%,8%,-3.58%,6%,-1.89%,12%,–,–,–,–,–,–
COc1cc(N2CCC(N3CCN(C)CC3)CC2)ccc1Nc1ncc(Cl)c(Nc2ccccc2P(C)(C)=O)n1 [brigatinib],–,–,–,–,–,–,–,–,–,–,–,"%-inhibition at 1 µmol/L, HER2 [1]: 69%; %-inhibition at 1 µmol/L, DDR2 [2]: 60%; %-inhibition at 1 µmol/L, TSSK3 [3]: 3%; %-inhibition at 1 µmol/L, WNK1 [4]: 5%; %-inhibition CDK4/CycD3 [5]: 40%; %-inhibition at 1 µmol/L, EPHA8 [6]: 6.55%"
Cc1cc(Nc2ncc(Cl)c(Nc3ccccc3S(=O)(=O)C(C)C)n2)c(OC(C)C)cc1C1CCNCC1 [ceritinib],9%,12%,8%,4.45%,4.63%,6%,–,–,–,–,–,–
O=C(c1ccc(F)c(F)c1Nc1ccc(I)cc1F)N1CC(O)([C@@H]2CCCCN2)C1 [cobimetinib],-1.21%,0.567%,-5%,-0.124%,0.294%,-5.33%,–,–,–,–,–,–
C[C@@H](Oc1cc(-c2cnn(C3CCNCC3)c2)cnc1N)c1c(Cl)ccc(F)c1Cl [crizotinib],–,–,–,–,–,–,88%,-0.601%,-3%,7%,82%,"%-inhibition at 1 µmol/L, HER2 [1]: -0.714%"
CC(C)(C)c1nc(-c2cccc(NS(=O)(=O)c3c(F)cccc3F)c2F)c(-c2ccnc(N)n2)s1 [dabrafenib],–,–,–,–,–,–,100%,-8%,1.14%,23%,35%,"%-inhibition at 1 µmol/L, HER2 [1, 18]: 50%"
C=CC(=O)N1CCC[C@@H](n2nc(-c3ccc(Oc4ccccc4)cc3)c3c(N)ncnc32)C1 [ibrutinib],100%,17%,-4%,2.3%,4%,55%,–,–,–,–,–,–
CO[C@@H]1[C@H](N(C)C(=O)c2ccccc2)C[C@H]2O[C@]1(C)n1c3ccccc3c3c4c(c5c6ccccc6n2c5c31)C(=O)NC4 [midostaurin],63%,97%,-2.3%,5.36%,-1.1%,6.51%,–,–,–,–,–,–
C=CC(=O)Nc1cc(Nc2nccc(-c3cn(C)c4ccccc34)n2)c(OC)cc1N(C)CCN(C)C [osimertinib],100%,25%,-0.941%,-1.88%,2.42%,-8%,–,–,–,–,–,–
CC(=O)Nc1cccc(-n2c(=O)n(C3CC3)c(=O)c3c(Nc4ccc(I)cc4F)n(C)c(=O)c(C)c32)c1 [trametinib],–,–,–,–,–,–,0.612%,-8%,-1.42%,5.62%,-8%,"%-inhibition at 1 µmol/L, HER2 [1, 18]: -5.36%"
CCCS(=O)(=O)Nc1ccc(F)c(C(=O)c2c[nH]c3ncc(-c4ccc(Cl)cc4)cc23)c1F [vemurafenib],–,–,–,–,–,–,69%,-3.19%,10%,-3.26%,7%,"%-inhibition at 1 µmol/L, HER2 [1, 18]: 2%"
